What all share (format): cell-based, human
For one data set, the system named is NHIP. Nature of the data set: NHIP transcript levels by RT-qPCR in LUHMES cells after hypoxia mimetic. Particulars: differentiated LUHMES cells. As for the experimental part:
(§1) LUHMES cells (ATCC, Manassas, VA, USA, CRL-2927) were seeded on fibronectin coated plates (Thermo Fisher Scientific, Waltham, MA, USA, CWP001, 354402). Undifferentiated cells were maintained in proliferation medium: Advanced DMEM/F12 (Invitrogen, Carlsbad, CA, USA), supplemented with N2 supplement (Invitrogen, Carlsbad, CA, USA), Penicillin-streptomycin-glutamine (Thermo Fisher Scientific, Waltham, MA, USA), and 40 ng/ml recombinant bFGF (Invitrogen, Carlsbad, CA, USA). To generate differentiated LUHMES, cells were switched to differentiation media for five days. Differentiation media: Advanced DMEM/F12, supplemented with N2 supplement, Penicillin-streptomycin-glutamine, 1 mM dbcAMP (MilliporeSigma, Burlington, MA, USA), 1 μg/ml tetracycline (Neta Scientific, Hainesport, NJ, USA), and 2 ng/ml recombinant human GDNF (Thermo Fisher Scientific, Waltham, MA, USA). […] For RNA quantification, cells were maintained in 6-well plates. […]
Total RNA was isolated from HEK293T cells transiently transfected with NHIP-eGFP or negative control NEG-eGFP using AllPrep DNA/RNA/Protein mini kit (Qiagen, Hilden, Germany). […] Fold changes of transcript levels were measured using the Fluidigm Real-Time PCR Analysis software calculated fold change of gene expression as the delta delta CT normalized to GAPDH (Fluidigm, San Francisco, CA, USA).

The subject of data set [1] is LUHMES cells. Nature of the data set: Reactive oxygen species (ROS-Glo H2O2 assay) in LUHMES cells after hypoxia mimetic. Particulars: differentiated LUHMES neurons compared with undifferentiated; 100 nM CoCl2 for 24 hours. Here is the method:
as §1, with “days.” for “days. Differentiation media: Advanced DMEM/F12, supplemented with N2 supplement, Penicillin-streptomycin-glutamine, 1 mM dbcAMP (MilliporeSigma, Burlington, MA, USA), 1 μg/ml tetracycline (Neta Scientific, Hainesport, NJ, USA), and 2 ng/ml recombinant human GDNF (Thermo Fisher Scientific, Waltham, MA, USA).”
(§2) All cells were maintained at 37° C. containing […] and 5% CO2. […] Cell numbers were measured using disposable countess chamber slide on Countess II FL automated cell counter (Thermo Fisher Scientific, Waltham, MA, USA) under the default steps with mixing 10 μl of samples with 10 μl of trypan blue. CellTiter Blue reagent was used for measured cell viability using […] based on manufacturer instruction (Promega, Madison, WI, USA). H2O2 production represented relative reactive oxygen species (ROS) level was measured with the ROS-Glo H2O2 assay system using 50 nM with the default setting with level measured by luminometer (Promega, Madison, WI, USA).

In data set [2] the test system is LUHMES cells. Nature of the data set: Cell viability (CellTiter Blue) of LUHMES cells after hypoxia mimetic. Particulars: differentiated LUHMES neurons compared with undifferentiated; CoCl2 for 24 hours. As for the experimental part:
as §1, with “days.” for “days. Differentiation media: Advanced DMEM/F12, supplemented with N2 supplement, Penicillin-streptomycin-glutamine, 1 mM dbcAMP (MilliporeSigma, Burlington, MA, USA), 1 μg/ml tetracycline (Neta Scientific, Hainesport, NJ, USA), and 2 ng/ml recombinant human GDNF (Thermo Fisher Scientific, Waltham, MA, USA).”
as §2
In general terms: Alamar Blue is a resazurin reagent that responds to reducing activity.

“Also recorded” adds a separate entry of the source.

In the case of `[Cl][Co][Cl]` [CoCl2, cobalt chloride], the NHIP transcript levels entry in the data set on NHIP (100 nM CoCl2 for 24 hours vs mock, normalized to GAPDH) is “significantly increased”. Besides, the “NHIP transcript levels after removal of hypoxia mimetic” value with NHIP (48 hours of recovery (Day 8) after 24 hours of CoCl2) is “returned to untreated levels; also recorded: returned to mock control baseline levels”. Also, the “reactive oxygen species (ROS) levels” value in the data set with LUHMES cells [1] is reported as “increase”. The cell viability entry in the data set on LUHMES cells [2] is listed as “significant decrease”.
